Measurements from patent US9823260B2, “Method to increase bioavailability of the delta-opioid receptor for management of pain and neuropsychiatric disorders” (priority 2014, dated 2017).
Like-named read-outs stand apart in the source and are kept apart here.

Tests used:
[1] = test system: PC12 cells expressing SSF-DOR; assay: Fixed cell immunofluorescence assay of DOR localization (intracellular/Golgi retention) in PC12 cells expressing SSF-DOR; format: cell-based, rat; details: for amount of cells exhibiting intracellular DOR (retention) after inhibitor alone / percentage of cells with internal localization of DOR within the Golgi region: no NGF; for amount of cells exhibiting intracellular DOR (retention) after inhibitor alone: Wortmannin 10 μM, Chelerythrine 5 μM, PP2 10 μM, Akt ½ kinase inhibitor 1 μM; for percentage of cells with internal localization of DOR within the Golgi region: PI3K inhibitor 10 μM alone
Excerpt: PC12 cells undergo neuronal specific signaling and differentiation in response to NGF.
To determine the mechanism regulating NGF-induced DOR retention, pharmacologic inhibition of known NGF-TrkA signaling molecules and quantification of the DOR localization via fixed cell immunofluorescence were employed. […]
Alternatively, it was chosen to use the neuroendocrine PC12 cell line as the model system.
To confirm that the NGF-induced internal localization is retention and not only due to increased protein production in response to NGF, the mechanistic evaluation was continued in the presence of Cycloheximide (CHX, 3 μg/mL) to inhibit new protein synthesis. […] Again referring to FIG. 3, for the evaluation of required downstream signaling targets, pharmacologic inhibition of TrkA effectors was performed to determine the pathway required for NGF-induced retention of DOR.
It was therefore sought to determine if inhibition of PI3K via treatment with Wortmannin alone was sufficient to induce intracellular retention of DOR using a fixed cell immunofluorescence assay.

[2] = test system: primary Trigeminal Ganglion (TG) neurons transfected with SSF-DOR; assay: Fixed cell immunofluorescence of DOR localization in primary Trigeminal Ganglion neurons transfected with SSF-DOR; format: cell-based, mice
Excerpt: To begin the example, confirmation that SSF-DOR was internally retained and localized with the Golgi complex in primary Trigeminal Ganglion (TG) sensory neurons was desired. First, primary TGs from adult mice were isolated and cultured. The SSF-DOR DNA construct was then transiently transfected into cultured TGs for subsequent localization analysis. Using a fixed-cell immunofluorescence assay, the location of SSF-DOR with an Alexa-488 conjugated anti-Flag M1 antibody was visualized, and the receptor signal was compared to an antibody against the Golgi marker GPP130. […] PC12 cells expressing SSF-DOR have a membrane localized expression pattern with little to no Golgi colocalization when analyzed via fixed cell fluorescence confocal microscopy. […]
By using the neuroendocrine PC12 cell line as our model system, PTEN inhibition was identified as a tool to prevent the internal retention of DOR following NGF administration. […] Graphical quantification of the percentage of DOR localized within the Golgi compared to the total cell DOR fluorescence is shown in FIG. 9 (top), and the Pearson's Correlation Coefficient between the DOR fluorescence and the GPP130 Golgi fluorescence in FIG. 9 (bottom).

DOR = assay: cAMP EPAC FRET biosensor assay of DOR signaling in live PC12 cells; format: cell-based, rat
[3] = test system: SSF-DOR expressing PC12 cells; assay: Fluorescence antibody internalization assay of the surface pool of DOR; format: cell-based, rat; details: 1-hour treatment; NGF 100 ng/mL, Wortmannin 10 μM, LY294002 10 μM, 740Y^PDGFR 25 μg/mL, DADLE 10 μM
Experimental: To eliminate the possibility that surface localized DOR was being actively internalized following PI3K inhibition, a fluorescence antibody internalization assay was performed in combination with pharmacologic inhibition of PI3K. SSF-DOR expressing PC12 cells were incubated with a cell-impermeable primary M1-Alexa 647 conjugated antibody to label the surface pool of receptors. The cells were treated with pharmacologic agents for 1 hour as in previous experiments, and receptor internalization was determined by adding a cell-impermeable secondary Alexa-488 conjugated antibody that recognizes the M1 primary antibody. The amount of internalization is quantified using a Pearson's Correlation Coefficient to determine the colocalization of the primary and secondary antibodies.

[4] = test system: SSF-MOR expressed in PC12 cells; assay: Fixed cell immunofluorescence assay of MOR localization in PC12 cells expressing SSF-MOR; format: cell-based, rat; details: 1-hour; NGF 100 ng/mL, Wortmannin 10 μM, LY294002 10 μM
Experimental: Previously, it was shown that the NGF-induced retention is specific to DOR and has minimal effect on MOR^37. It was therefore asked if retention of DOR via PI3K inhibition was also specific to DOR. To determine this specificity, the sufficiency of NGF, and PI3K inhibition by Wortmannin or LY294002, to promote intracellular retention of SSF-MOR expressed in PC12 cells was evaluated using the fixed cell immunofluorescence assay. Under basal no treatment conditions, SSF-MOR was prominently localized to the cell surface. Upon NGF (100 ng/mL), Wortmannin (10 μM), or LY294002 (10 μM) treatment for 1-hour, the majority of the SSF-MOR signal was localization to the cell surface with minimal overlap within the Golgi region.

[5] = with NGF and CHX, Y-27632 5 μM, U0126 10 μM, Akt1/2 Kinase Inhibitor 500 nM, U73122 10 μM, Chelerythrine 10 μM, PP2 500 nM

C[C@@H](N)[C@H]1CC[C@H](C(=O)Nc2ccncc2)CC1 [Y-27632]
effect on NGF-induced retention of DOR [1, 5]: no statistical effect

CC(C)(C)n1nc(-c2ccc(Cl)cc2)c2c(N)ncnc21 [PP2]
amount of cells exhibiting intracellular DOR (retention) after inhibitor alone [1]: did not significantly increase
effect on NGF-induced retention of DOR [1, 5]: no statistical effect

O=C(NCc1c(F)cccc1F)c1sccc1OCc1ccc(Cl)cc1Cl [AS1938909]
DOR retention in combination with NGF versus NGF treatment alone [1]: not significantly different
percentage of cells exhibiting Golgi localized DOR and percentage of DOR fluorescence within the Golgi ([1]; SHIP2 inhibitor AS1938909 10 μM only): significant increase

COc1ccc2c(c[n+](C)c3c4cc5c(cc4ccc23)OCO5)c1OC [Chelerythrine]
amount of cells exhibiting intracellular DOR (retention) after inhibitor alone [1]: did not significantly increase
effect on NGF-induced retention of DOR [1, 5]: no statistical effect

C[C@@H]1C[C@@H]([C@H](O)CC2CC(=O)NC(=O)C2)C(=O)[C@@H](C)C1 [CHX, Cycloheximide]
percentage of SSF-DOR expressing PC12 cells with internal localization of DOR ([1]; CHX 3 μg/mL alone, 1 hour): 16%

CC(C)(C)C(=O)Nc1ccc2c(c1)C(=O)C(=O)c1ccccc1-2 [SF1670]
percentage of DOR fluorescence localized with the Golgi compared to the total DOR fluorescence ([2]; SF1670 alone and in combination with NGF): decreased significantly
effect of PTEN inhibitor on NGF-induced retention of DOR ([1]; with NGF 100 ng/mL, bpV(HOptic) 10 μM): prevented NGF-induced retention of DOR in a dose dependent manner
inhibition of cAMP upon DADLE treatment after CNA blockade and PTEN inhibition (DOR; NGF pre-treatment, CNA blockade, SF1670 10 μM, Forskolin, DADLE): 80%
increase of cAMP inhibition over that obtained after CNA alone (DOR; SF1670 10 μM after CNA versus CNA alone): 61%

O=c1[nH]c2ccccc2n1C1CCN(Cc2ccc(-c3nc4cc5nc[nH]c5cc4nc3-c3ccccc3)cc2)CC1 [Akt1/2 Kinase Inhibitor]
amount of cells exhibiting intracellular DOR (retention) after inhibitor alone [1]: did not significantly increase
effect on NGF-induced retention of DOR [1, 5]: no statistical effect

N#CC(=C(/N)Sc1ccccc1N)/C(C#N)=C(\N)Sc1ccccc1N [U0126]
effect on NGF-induced retention of DOR [1]: no statistical effect

NGF: Nerve Growth Factor; initiates internal retention of DOR in PC12 cells via TrkA
colocalization of primary and secondary antibody (Pearson's Correlation Coefficient; internalization of surface DOR) [3]: very strong colocalization
change in intracellular retention of MOR (percentage of cells with Golgi localized MOR and percentage of MOR fluorescence within the Golgi) [4]: non-significant change
colocalization between DOR and GPP130 Golgi marker (Pearson's Correlation Coefficient) ([2]; NGF treatment): significant increase in colocalization
percentage of cells with internal localization of DOR colocalized with the Golgi ([1]; NGF 100 ng/mL, 1 hour (FIG. 3 right)): 80%
percentage of transfected cells with internal localization of DOR ([1]; NGF 100 ng/mL, 1 hour, no CHX): 90%
percentage of cells imaged with internal localization of DOR ([1]; NGF added 1 hour before CHX addition and chased for 1 hour): 80%

COc1ccc2c(c1)CC[C@@H]1[C@@H]2CC[C@]2(C)[C@@H](NCCCCCCN3C(=O)C=CC3=O)CC[C@@H]12 [U73122]
effect on NGF-induced retention of DOR [1, 5]: no statistical effect

CC(C)C[C@@H](NC(=O)[C@H](Cc1ccccc1)NC(=O)CNC(=O)[C@@H](C)NC(=O)[C@@H](N)Cc1ccc(O)cc1)C(=O)O [DADLE]
colocalization of primary and secondary antibody (Pearson's Correlation Coefficient; internalization of surface DOR) [3]: minimal antibody colocalization
inhibition of Forskolin induced cAMP by DADLE (DOR; 1 hour NGF pretreatment, Forskolin 5 μM, DADLE 10 μM): 81%

COC[C@H]1OC(=O)c2coc3c2[C@@]1(C)C1=C(C3=O)[C@@H]2CCC(=O)[C@@]2(C)C[C@H]1OC(C)=O [Wortmannin]
percentage of cells with internal localization of DOR ([1]; NGF 100 ng/ml and Wortmannin 10 μM): 87%
percentage of cells with internal localization of DOR within the Golgi region [1]: 88%
percentage of cells with intracellular retention of DOR ([1]; Wortmannin 10 μM in combination with NGF, 1-hour CHX chase): 97%

O=c1cc(N2CCOCC2)oc2c(-c3ccccc3)cccc12 [LY294002]
percentage of cells with internal localization of DOR within the Golgi region [1]: 88%
